Patent US11236087B2, “Highly active pyrazolo-piperidine substituted indole-2-carboxamides active against the hepatitis B virus (HBV)” (AiCuris GmbH & Co. KG, priority 2017, dated 2022)

Key:
HBV = assay: Determination of HBV DNA from the supernatants of HepAD38 cells (anti-HBV activity); format: cell-based, hepatitis B virus; conditions: Hepatitis B virus, 144 h; HBV DNA in HepAD38 supernatant, day 6, qPCR; read-out: Cell Activity (EC50)
Summary of the method: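 Supernatant viral DNA was measured by LightCycler qPCR, calibrated with pCH-9/3091 plasmid, 6 days after tetracycline-free HepAD38 cultures received half-log serial compound dilutions; untreated and tetracycline-treated cells served as controls; EC50 was fitted by non-linear regression.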

HBV core protein = biological target: T1, HBV core protein (UniProt P03146); assay: Biochemical capsid assembly assay (fluorescence quenching); parameters: species or system hepatitis B virus; conditions: read-out: Assembly Activity (IC50); BODIPY-FL labelled core protein, 300 μM NaCl, read 6 min after start
T1 construct: fused on or other part: BODIPY-FL maleimide label on the C-terminal Cys150
T1 sequence (P03146 whole entry, looked up, the tested form may be a part): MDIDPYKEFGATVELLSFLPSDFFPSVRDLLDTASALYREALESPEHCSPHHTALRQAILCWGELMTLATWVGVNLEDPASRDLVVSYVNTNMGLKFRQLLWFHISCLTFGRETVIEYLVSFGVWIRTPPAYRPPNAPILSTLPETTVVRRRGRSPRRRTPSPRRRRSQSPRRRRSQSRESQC
Summary of the method: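 Assembly-induced fluorescence quenching (477/525 nm) was measured 6 min after NaCl addition ([…]), against 2.5 M and 0 M NaCl controls. The labelled C150 core dimer (truncated at 149) at 1.0-2.0 μM in HEPES pH 7.5 was tested with eight half-log compound dilutions, top 100, 31.6 or 10 μM. EC50 was obtained by non-linear fit from triplicates run three times.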

[1] = Cell viability assay (AlamarBlue) in HepAD38 cells; conditions: human

| Compound | EC50 (HBV) | IC50 (HBV core protein) | CC50 at 6 days [1] |
| --- | --- | --- | --- |
| O=C(NCC1CCOC1)c1n[nH]c2c1CN(C(=O)c1cc3ccccc3[nH]1)CC2 (stereo not drawn) [Example 96, 5-(1H-indole-2-carbonyl)-N-[(oxolan-3-yl)methyl]-1H,4H,5H,6H,7H-pyrazolo[4,3-c]pyridine-3-carboxamide] | 1000 to 25000 nM | < 100 µM | > 100 µM |
| CN(CC1CCCO1)C(=O)c1n[nH]c2c1CN(C(=O)c1cc3ccccc3[nH]1)CC2 (stereo not drawn) [Example 97, 5-(1H-indole-2-carbonyl)-N-methyl-N-[(oxolan-2-yl)methyl]-1H,4H,5H,6H,7H-pyrazolo[4,3-c]pyridine-3-carboxamide] | < 1000 nM | 5 to 10 µM | > 100 µM |
| CN1CCN(C(=O)c2n[nH]c3c2CN(C(=O)c2cc4ccccc4[nH]2)CC3)CC1 [Example 98, 2-[3-(4-methylpiperazine-1-carbonyl)-1H,4H,5H,6H,7H-pyrazolo[4,3-c]pyridine-5-carbonyl]-1H-indole] | 1000 to 25000 nM | < 100 µM | > 32 µM |
| O=C(c1cc2ccccc2[nH]1)N1CCc2[nH]nc(C(=O)N3CCCC3)c2C1 [Example 99, 2-[3-(pyrrolidine-1-carbonyl)-1H,4H,5H,6H,7H-pyrazolo[4,3-c]pyridine-5-carbonyl]-1H-indole] | 1000 to 25000 nM | 5 to 10 µM | > 100 µM |
| CN(CCO)C(=O)c1n[nH]c2c1CN(C(=O)c1cc3ccccc3[nH]1)CC2 [Example 100, N-(2-hydroxyethyl)-5-(1H-indole-2-carbonyl)-N-methyl-1H,4H,5H,6H,7H-pyrazolo[4,3-c]pyridine-3-carboxamide] | < 1000 nM | < 5 µM | > 100 µM |
| CS(=O)(=O)CCNC(=O)c1n[nH]c2c1CN(C(=O)c1cc3ccccc3[nH]1)CC2 [Example 101, 5-(1H-indole-2-carbonyl)-N-(2-methanesulfonylethyl)-1H,4H,5H,6H7H-pyrazolo[4,3-c]pyridine-3-carboxamide] | < 100000 nM | < 100 µM | > 100 µM |
| CN(CCCO)C(=O)c1n[nH]c2c1CN(C(=O)c1cc3ccccc3[nH]1)CC2 [Example 102, N-(3-hydroxypropyl)-5-(1H-indole-2-carbonyl)-N-methyl-1H,4H,5H,6H,7H-pyrazolo[4,3-c]pyridine-3-carboxamide] | < 1000 nM | < 5 µM | > 100 µM |
| CCN(C)C(=O)c1n[nH]c2c1CN(C(=O)c1cc3ccccc3[nH]1)CC2 [Example 103, N-ethyl-5-(1H-indole-2-carbonyl)-N-methyl-1H,4H,5H,6H,7H-pyrazolo[4,3-c]pyridine-3-carboxamide] | < 1000 nM | < 5 µM | > 100 µM |
| COCCNC(=O)c1n[nH]c2c1CN(C(=O)c1cc3ccccc3[nH]1)CC2 [Example 104, 5-(1H-indole-2-carbonyl)-N-(2-methoxyethyl)-1H,4H,5H,6H,7H-pyrazolo[4,3-c]pyridine-3-carboxamide] | 1000 to 25000 nM | < 100 µM | > 100 µM |
| O=C(NCCCO)c1n[nH]c2c1CN(C(=O)c1cc3ccccc3[nH]1)CC2 [Example 105, N-(3-hydroxypropyl)-5-(1H-indole-2-carbonyl)-1H,4H,5H,6H,7H-pyrazolo[4,3-c]pyridine-3-carboxamide] | 1000 to 25000 nM | < 100 µM | > 100 µM |
| NC(=O)c1n[nH]c2c1CN(C(=O)c1cc3ccccc3[nH]1)CC2 [Example 106, 5-(1H-indole-2-carbonyl)-1H,4H,5H,6H,7H-pyrazolo[4,3-c]pyridine-3-carboxamide] | < 100000 nM | < 100 µM | > 100 µM |
| O=C(NCCO)c1n[nH]c2c1CN(C(=O)c1cc3ccccc3[nH]1)CC2 [Example 107, N-(2-hydroxyethyl)-5-(1H-indole-2-carbonyl)-1H,4H,5H,6H,7H-pyrazolo[4,3-c]pyridine-3-carboxamide] | 1000 to 25000 nM | < 100 µM | > 100 µM |
| O=C(c1cc2ccccc2[nH]1)N1CCc2[nH]nc(C(=O)N3CCOCC3)c2C1 [Example 108, 2-[3-(morpholine-4-carbonyl)-1H,4H,5H,6H,7H-pyrazolo[4,3-c]pyridine-5-carbonyl]-1H-indole] | 1000 to 25000 nM | < 100 µM | > 100 µM |
| CCNC(=O)c1n[nH]c2c1CN(C(=O)c1cc3ccccc3[nH]1)CC2 [Example 109, N-ethyl-5-(1H-indole-2-carbonyl)-1H,4H,5H,6H,7H-pyrazolo[4,3-c]pyridine-3-carboxamide] | 1000 to 25000 nM | 5 to 10 µM | > 100 µM |
| O=C(c1cc2ccccc2[nH]1)N1CCc2[nH]nc(C(=O)N3CCCCC3)c2C1 [Example 112, 2-[3-(piperidine-1-carbonyl)-1H,4H,5H,6H,7H-pyrazolo[4,3-c]pyridine-5-carbonyl]-1H-indole] | < 1000 nM | < 5 µM | > 32 µM |
| CON(C)C(=O)c1n[nH]c2c1CN(C(=O)c1cc3c(Cl)cccc3[nH]1)CC2 [Example 113, 5-(4-chloro-1H-indole-2-carbonyl)-N-methoxy-N-methyl-1H,4H,5H,6H,7H-pyrazolo[4,3-c]pyridine-3-carboxamide] | < 1000 nM | < 5 µM | > 100 µM |
| O=C(c1cc2c(F)cccc2[nH]1)N1CCc2[nH]ncc2C1 [Example 114, 4-fluoro-2-{1H,4H,5H,6H,7H-pyrazolo[4,3-c]pyridine-5-carbonyl}-1H-indole] | < 1000 nM | < 5 µM | > 100 µM |
| Nc1n[nH]c2c1CN(C(=O)c1cc3ccccc3[nH]1)CC2 [Example 115, 5-(1H-indole-2-carbonyl)-1H,4H,5H,6H,7H-pyrazolo[4,3-c]pyridin-3-amine] | 1000 to 25000 nM | 5 to 10 µM | > 100 µM |
| Cc1noc(-c2n[nH]c3c2CN(C(=O)c2cc4ccccc4[nH]2)CC3)n1 [Example 116, 2-[3-(3-methyl-1,2,4-oxadiazol-5-yl)-1H,4H,5H,6H,7H-pyrazolo[4,3-c]pyridine-5-carbonyl]-1H-indole] | < 100000 nM | 5 to 10 µM | > 100 µM |
| O=C(c1cc2c(F)cc(F)cc2[nH]1)N1C2CCC1c1cn[nH]c1C2 (stereo not drawn) [Example 117, 11-(4,6-difluoro-1H-indole-2-carbonyl)-4,5,11-triazatricyclo[6.2.1.0^2,6]undeca-2(6),3-diene] | < 100000 nM | < 100 µM | > 100 µM |
| O=C(c1cc2ccccc2[nH]1)N1CCc2[nH]nc(CO)c2C1 [Example 118, [5-(1H-indole-2-carbonyl)-1H,4H,5H,6H,7H-pyrazolo[4,3-c]pyridin-3-yl]methanol] | 1000 to 25000 nM | 5 to 10 µM | > 100 µM |
| O=C(c1cc2ccc(Br)cc2[nH]1)N1CCc2[nH]ncc2C1 [Example 119, 6-bromo-2-{1H,4H,5H,6H,7H-pyrazolo[4,3-c]pyridine-5-carbonyl}-1H-indole] | < 1000 nM | < 5 µM | > 100 µM |
| O=C(c1cc2cccc(Cl)c2[nH]1)N1CCc2[nH]ncc2C1 [Example 120, 7-chloro-2-{1H,4H,5H,6H,7H-pyrazolo[4,3-c]pyridine-5-carbonyl}-1H-indole] | < 1000 nM | 5 to 10 µM | > 100 µM |
| O=C(c1cc2cc(Cl)ccc2[nH]1)N1CCc2[nH]ncc2C1 [Example 122, 5-chloro-2-{1H,4H,5H,6H,7H-pyrazolo[4,3-c]pyridine-5-carbonyl}-1H-indole] | 1000 to 25000 nM | < 100 µM | > 100 µM |
| O=C(c1cc2ccccc2[nH]1)N1CCc2[nH]nc(C(=O)N3CCCN3)c2C1 [Example 124, 2-[3-(pyrazolidine-1-carbonyl)-1H,4H,5H,6H,7H-pyrazolo[4,3-c]pyridine-5-carbonyl]-1H-indole] | < 1000 nM | < 5 µM | > 32 µM |
| CON(C)C(=O)c1n[nH]c2c1CN(C(=O)c1cc3c(F)ccc(F)c3[nH]1)CC2 [Example 125, 5-(4,7-difluoro-1H-indole-2-carbonyl)-N-methoxy-N-methyl-1H,4H,5H,6H,7H-pyrazolo[4,3-c]pyridine-3-carboxamide] | < 1000 nM | < 5 µM | > 100 µM |
| CON(C)C(=O)c1n[nH]c2c1CN(C(=O)c1cc3c(Cl)cc(F)cc3[nH]1)CC2 [Example 126, 5-(4-chloro-6-fluoro-1H-indole-2-carbonyl)-N-methoxy-N-methyl-1H,4H,5H,6H,7H-pyrazolo[4,3-c]pyridine-3-carboxamide] | < 1000 nM | < 5 µM | > 32 µM |
| CON(C)C(=O)c1n[nH]c2c1CN(C(=O)c1cc3c(F)cc(F)cc3[nH]1)CC2 [Example 127, 5-(4,6-difluoro-1H-indole-2-carbonyl)-N-methoxy-N-methyl-1H4H,5H,6H,7H-pyrazolo[4,3-c]pyridine-3-carboxamide] | < 1000 nM | < 5 µM | > 100 µM |
| CON(C)C(=O)c1n[nH]c2c1CN(C(=O)c1cc3c(C)cc(F)cc3[nH]1)CC2 [Example 128, 5-(6-fluoro-4-methyl-1H-indole-2-carbonyl)-N-methoxy-N-methyl-1H,4H,5H,6H,7H-pyrazolo[4,3-c]pyridine-3-carboxamide] | < 1000 nM | < 5 µM | 98 µM |
